Test results reported in ChEMBL document CHEMBL1201862, “PubChem BioAssay data set” (2004).
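Dose response: 5 concentrations. Exposure: 48 h. Format: 96-well plates. Endpoint: linear interpolation; highest concentration if not reached. At the GI50, growth is halved.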 Activity calls are given as the source filed them. Cut-off read from the data, not from the text of the source: active = GI50 up to about 1.1 µM and inactive = higher.

Key:
Assay in all cases: growth of human tumour cells (NCI), 48 h
HCT-116 = test system: HCT-116
OVCAR-8 = test system: OVCAR-8
EKVX = test system: EKVX
NCI-H23 = test system: NCI-H23
HOP-62 = test system: HOP-62
SF-268 = test system: SF-268
LOX IMVI = test system: LOX IMVI
ACHN = test system: ACHN
M14 = test system: M14
NCI-H460 = test system: NCI-H460
UO-31 = test system: UO-31
K562 = test system: K562
OVCAR-3 = test system: OVCAR-3
RXF 393 = test system: RXF 393
NCI-H522 = test system: NCI-H522
CCRF-CEM = test system: CCRF-CEM
SK-OV-3 = test system: SK-OV-3
UACC-257 = test system: UACC-257

Measured: GI50

COC(=O)c1c(C(=O)OC)c2cc(C(=O)c3ccccc3)ccn2c1Cl
inactive: HCT-116 39.6 µM | OVCAR-8 30 µM | EKVX 31 µM | NCI-H23 23.1 µM | HOP-62 37.2 µM | SF-268 43.2 µM | LOX IMVI 36.1 µM | ACHN 43.8 µM | M14 34 µM | NCI-H460 50 µM | UO-31 28.2 µM | K562 29 µM | OVCAR-3 21.6 µM | RXF 393 23.7 µM | NCI-H522 19.5 µM | CCRF-CEM 29.7 µM

O=C1C=C[C@@]23CC1C(O)C[C@H]2C=Cc1ccccc13 (stereo not given in full)
inactive: HCT-116 > 100 µM | OVCAR-8 > 100 µM | SK-OV-3 > 100 µM | HOP-62 > 100 µM | SF-268 > 100 µM | LOX IMVI > 100 µM | ACHN > 100 µM | M14 > 100 µM | NCI-H460 > 100 µM | UO-31 > 100 µM | K562 50.2 µM | OVCAR-3 > 100 µM | UACC-257 > 100 µM | NCI-H522 > 100 µM | CCRF-CEM > 100 µM

O=[N+]([O-])c1cccc(C2=NOC(C3CCCCC3)C2)c1 (stereo not given)
inactive: HCT-116 > 100 µM | OVCAR-8 > 100 µM | NCI-H23 > 100 µM | SK-OV-3 > 100 µM | HOP-62 > 100 µM | SF-268 > 100 µM | ACHN > 100 µM | M14 > 100 µM | NCI-H460 > 100 µM | UO-31 > 100 µM | K562 > 100 µM | OVCAR-3 > 100 µM | UACC-257 > 100 µM | NCI-H522 > 100 µM | CCRF-CEM > 100 µM

CC1=CCC(O)C=CC(C)C(O)C(C)C=C(C)C(=O)c2c(O)c(C)cc3c2C(=O)C(N)=C(NC(=O)/C=C\C=C/C=CC(C)C(O)CC1=O)C3=O (stereo not given)
inactive: HCT-116 21.6 µM | OVCAR-8 > 100 µM | EKVX > 100 µM | NCI-H23 > 100 µM | SK-OV-3 > 100 µM | HOP-62 > 100 µM | SF-268 > 100 µM | LOX IMVI > 100 µM | ACHN > 100 µM | M14 > 100 µM | UO-31 63 µM | K562 > 100 µM | OVCAR-3 64.4 µM | UACC-257 > 100 µM | NCI-H522 19.5 µM | CCRF-CEM 67.6 µM

O=C1c2ccccc2C(=O)C1(Cl)C1(S(=O)(=O)O)c2ccccc2-c2ccccc21
inactive: HCT-116 > 100 µM | OVCAR-8 > 100 µM | NCI-H23 > 100 µM | SK-OV-3 > 100 µM | HOP-62 > 100 µM | SF-268 > 100 µM | LOX IMVI > 100 µM | ACHN > 100 µM | M14 > 100 µM | NCI-H460 > 100 µM | UO-31 > 100 µM | K562 > 100 µM | OVCAR-3 > 100 µM | RXF 393 > 100 µM | UACC-257 > 100 µM | NCI-H522 > 100 µM | CCRF-CEM > 100 µM

CC(=O)c1ccc(NC(=O)C(=O)C(C(=O)c2ccc(Cl)c(Cl)c2)C2OC(=O)c3ccccc32)cc1 (stereo not given)
inactive: HCT-116 13 µM | OVCAR-8 12.5 µM | EKVX 40 µM | NCI-H23 13.6 µM | SK-OV-3 59.8 µM | HOP-62 18.9 µM | SF-268 16.3 µM | LOX IMVI 14.4 µM | ACHN 20.5 µM | M14 17.7 µM | NCI-H460 13.2 µM | UO-31 24.4 µM | K562 23.3 µM | OVCAR-3 16.9 µM | RXF 393 4.54 µM | UACC-257 23.4 µM | NCI-H522 9.38 µM | CCRF-CEM 73.3 µM

O=C(c1ccccc1)N1CCN2CCN=C(c3ccccc3)C21c1ccccc1 (stereo not given)
inactive: HCT-116 48.2 µM | OVCAR-8 > 100 µM | EKVX 70.8 µM | NCI-H23 80.2 µM | SK-OV-3 > 100 µM | HOP-62 > 100 µM | LOX IMVI > 100 µM | ACHN 63.1 µM | M14 61.2 µM | NCI-H460 94.8 µM | UO-31 22.8 µM | K562 29.1 µM | OVCAR-3 79.1 µM | RXF 393 45.5 µM | UACC-257 25.8 µM | CCRF-CEM 61.9 µM

COc1c(C)cc(O)cc1C=O
inactive: OVCAR-8 > 100 µM | EKVX > 100 µM | SK-OV-3 > 100 µM | HOP-62 > 100 µM | SF-268 > 100 µM | LOX IMVI > 100 µM | ACHN > 100 µM | M14 > 100 µM | NCI-H460 > 100 µM | UO-31 > 100 µM | K562 > 100 µM | OVCAR-3 > 100 µM | RXF 393 > 100 µM | UACC-257 > 100 µM | NCI-H522 > 100 µM | CCRF-CEM > 100 µM

Cc1c2n(c(=O)[nH]c1=O)C1OC(CO)C(O2)C1N=[N+]=[N-] (stereo not given)
inactive: HCT-116 > 100 µM | OVCAR-8 > 100 µM | EKVX > 100 µM | NCI-H23 > 100 µM | SK-OV-3 > 100 µM | HOP-62 > 100 µM | SF-268 > 100 µM | LOX IMVI > 100 µM | ACHN > 100 µM | NCI-H460 > 100 µM | UO-31 > 100 µM | K562 > 100 µM | OVCAR-3 > 100 µM | UACC-257 > 100 µM | NCI-H522 > 100 µM | CCRF-CEM > 100 µM
